The species named for one experiment is Mus musculus. Put plainly: In vitro immunosuppressive activity relative to cyclosporin A was determined by using mouse mixed lymphocyte reaction. The class given is functional.
In the next experiment the test system is Jurkat. Put plainly: In vitro immunosuppressive activity relative to cyclosporin A using interleukin-2 reporter gene assay was determined in a Jurkat cell line. It is filed as functional, Homo sapiens. (In general: Reporter assays use an easily measured gene product as a stand-in for the process of interest.)
In a further experiment the test system is AIK-T4. Put plainly: In vitro inhibition of the cytopathic effect induced by HIV-1(IIIB) using the human T-cell leukemia virus transformed T4 cell line. The class given is functional, cell-based. (In general: Damage to the host cells serves as the signal in cytopathic effect assays.)

Structures are written as SMILES. Values after ≈ are worked out from the molar mass of the structure shown.

Consider `C/C=C/C[C@@H](C)[C@@H](O)[C@H]1C(=O)N[C@@H](CC)C(=O)N(C)[C@H](CO)C(=O)N(C)[C@@H](CC(C)(C)O)C(=O)N[C@@H](C(C)C)C(=O)N(C)[C@@H](CC(C)C)C(=O)N[C@@H](C)C(=O)N[C@H](C)C(=O)N(C)[C@@H](CC(C)C)C(=O)N(C)[C@@H](CC(C)C)C(=O)N(C)[C@@H](C(C)C)C(=O)N1C` [listing 1 of 2 here], for which the “Relative IC50” value is reported as more than 3333 in the experiment filed under Mus musculus and more than 770 in the experiment on Jurkat.
In general, IC50 refers to the concentration that gives 50% inhibition. A low value points to greater potency. Consider `C/C=C/C[C@@H](C)[C@@H](O)[C@H]1C(=O)N[C@@H](CC)C(=O)N(C)[C@H](CO)C(=O)N(C)[C@@H](CC(C)(C)O)C(=O)N[C@@H](C(C)C)C(=O)N(C)[C@@H](CC(C)C)C(=O)N[C@@H](C)C(=O)N[C@H](C)C(=O)N(C)[C@@H](CC(C)C)C(=O)N(C)[C@@H](CC(C)C)C(=O)N(C)[C@@H](C(C)C)C(=O)N1C` [listing 2 of 2 here], for which half-maximal inhibition with AIK-T4 (IC50) required 0.12 mg/L (≈ 0.0961 µM).

Source of the values: ChEMBL document CHEMBL1150538, “Anti HIV-1 activity of a hydrophilic cyclosporin derivative with improved binding affinity to cyclophilin A” (Bioorg Med Chem Lett, 1996).
